Measured values: PubChem BioAssay AID732 (Emory University Molecular Libraries Screening Center, 2007)
Calls of active or inactive are those of the source. No rule for the calls is given here.

System: in vivo angiogenesis, blood vessel count
Experiment: angiogenesis inhibition in living animals, in vivo study, HTS (AID 732);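 also: zebrafish embryos dosed at one day post fertilization; 0% = reference inhibitor and 100% = plate mean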
Details: stronger effect = lower value;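 tested at 30 µM in the well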

CC(=O)O[C@H]1C(=O)[C@@]2(C)C([C@H](OC(=O)c3ccccc3)[C@]3(O)C[C@H](OC(=O)[C@H](O)[C@@H](NC(=O)c4ccccc4)c4ccccc4)C(C)=C1C3(C)C)[C@]1(OC(C)=O)CO[C@@H]1C[C@@H]2O (stereo not given in full)
vessel count % control: 82.3% (inactive)

CN1CCN(c2ccc3ccccc3n2)CC1
vessel count % control: 104% (inactive)

[N-]=[N+]=Nc1ccc(C(=O)CSC[C@H](NC(=O)CC[C@H](N)C(=O)O)C(=O)NCC(=O)O)cc1
vessel count % control: 91.6% (inactive)

COc1ccccc1N1CCN(CCCCN2C(=O)c3ccccc3C2=O)CC1
vessel count % control: 117% (inactive)

Nc1ccc(S(=O)(=O)Nc2ccnn2-c2ccccc2)cc1
vessel count % control: 122% (inactive)

C=CCN1CCc2c(cc(O)c(O)c2Br)[C@@H](c2ccccc2)C1
vessel count % control: 85% (inactive)

CC(C)c1ccc2c(c1)c(SC(C)(C)C)c(CC(C)(C)C(=O)O)n2Cc1ccc(Cl)cc1
vessel count % control: 99.4% (inactive)

Clc1cnc(Oc2ccc(Oc3ncc(Cl)cc3Cl)cc2)c(Cl)c1
vessel count % control: 96.7% (inactive)

COc1c2c(nc3ccccc13)OC(C(C)(O)CO)C2 (stereo not given)
vessel count % control: 120% (inactive)

Nc1ccc2c3c(cccc13)C(=O)NC2=O
vessel count % control: 0% (inactive)

CC[C@H]1CN2CCc3cc(OC)c(OC)cc3[C@@H]2C[C@@H]1C[C@H]1NCCc2cc(OC)c(OC)cc21
vessel count % control: 103% (inactive)

CC(=O)SC1CC2=CC(=O)CC[C@]2(C)C2CC[C@@]3(C)C(CC[C@@]34CCC(=O)O4)C12 (stereo not given in full)
vessel count % control: 85.3% (inactive)

COc1cc(OC)c(/C=C2/C(=O)Nc3ccccc32)c(OC)c1
vessel count % control: 44.4% (inactive)

Cc1cc(C)c(/C=C2\C(=O)Nc3ccccc32)[nH]1
vessel count % control: 0% (inactive)

CN[C@H](CC(=O)O)C(=O)O
vessel count % control: 86.7% (inactive)

CC(CN1c2ccccc2Sc2ccccc21)N(C)C (stereo not given)
vessel count % control: 97.7% (inactive)

CC1(C)CCC(NC(=O)[C@@H](N)CCC(=O)O)CC1
vessel count % control: 122% (inactive)

Cn1ccnc1
vessel count % control: 109% (inactive)

CC(C)[C@@]1(NC(=O)[C@@H]2C[C@@H]3c4cccc5[nH]cc(c45)C[C@H]3N(C)C2)O[C@@]2(O)[C@@H]3CCCN3C(=O)[C@H](Cc3ccccc3)N2C1=O
vessel count % control: 118% (inactive)

CC(C)C[C@H](NC(=O)[C@H](O)[C@H](N)Cc1ccccc1)C(=O)O
vessel count % control: 104% (inactive)

Cn1cnc([N+](=O)[O-])c1Sc1ncnc2nc[nH]c12
vessel count % control: 81.5% (inactive)

Cc1c2ccncc2c(C)c2c1[nH]c1ccccc12
vessel count % control: 110% (inactive)

CCCNCC(O)COc1ccccc1C(=O)CCc1ccccc1 (stereo not given)
vessel count % control: 102% (inactive)

CC(=O)Oc1ccccc1C(=O)O
vessel count % control: 105% (inactive)

CN(C)S(=O)(=O)c1ccc2c(c1)/C(=C/c1cc3c([nH]1)CCCC3)C(=O)N2
vessel count % control: 120% (inactive)

C[N+](C)(C)CCC(=O)c1cccc2ccccc12
vessel count % control: 0% (inactive)

NC(CCCCCP(=O)(O)O)C(=O)O (stereo not given)
vessel count % control: 113% (inactive)

NC(=O)CI
vessel count % control: 108% (inactive)

CNC[C@H](O)c1ccc(O)c(O)c1
vessel count % control: 94% (inactive)

CCCCCCCCCCCCCCCCCC(=O)NCC(COP(=O)([O-])OCC[N+](C)(C)C)OCC (stereo not given)
vessel count % control: 101% (inactive)

CCCCCCCCCCCCC/C=C/C(O)C(N)CO (stereo not given)
vessel count % control: 112% (inactive)

CCCN(CCC)C(=O)C(CCC(=O)O)NC(=O)c1ccccc1 (stereo not given)
vessel count % control: 103% (inactive)

CC(C)CN(C)c1nc(N)c(C(=O)N=C(N)N)nc1Cl
vessel count % control: 101% (inactive)

O=c1[nH]c2cc(C(F)(F)F)ccc2n1-c1cc(C(F)(F)F)ccc1O
vessel count % control: 91.2% (inactive)

C[C@H]1OC[C@@H](C[N+](C)(C)C)O1
vessel count % control: 115% (inactive)

NCC(O)c1ccc(O)c(O)c1 (stereo not given)
vessel count % control: 108% (inactive)

CN[C@@H]1C[C@@H](c2ccc(Cl)c(Cl)c2)c2ccccc21
vessel count % control: 0% (inactive)

FC(F)(F)c1cc(CO[C@H]2CCCN[C@H]2c2ccccc2)cc(C(F)(F)F)c1
vessel count % control: 91.5% (inactive)

CC1Cc2cc3c(cc2C(c2ccc(N)cc2)=NN1)OCO3 (stereo not given)
vessel count % control: 105% (inactive)

O=c1ccc2c(OCCCCc3ccccc3)c3ccoc3cc2o1
vessel count % control: 76.3% (inactive)

CN(C)CCCN1c2ccccc2Sc2ccc(Cl)cc21
vessel count % control: 84.3% (inactive)

O=C(O)CCC(=O)N1CCCC1C(=O)O (stereo not given)
vessel count % control: 109% (inactive)

S=C=Nc1cccc(C2(N3CCCCC3)CCCCC2)c1
vessel count % control: 91% (inactive)

NCCc1ccc(O)c(O)c1
vessel count % control: 91.6% (inactive)

N=c1c[n+](N2CCOCC2)[n-]o1
vessel count % control: 110% (inactive)

Nc1nnc(-c2cccc(Cl)c2Cl)c(N)n1
vessel count % control: 62.2% (inactive)

O=C(O)Cc1c[nH]c2ccc(O)cc12
vessel count % control: 92.5% (inactive)

CCN(CC)CCNC(=O)c1ccc(N)cc1
vessel count % control: 139% (inactive)

CC(COc1ccccc1)N(CCCl)Cc1ccccc1 (stereo not given)
vessel count % control: 139% (inactive)

CNCCCC12CCC(c3ccccc31)c1ccccc12
vessel count % control: 92.5% (inactive)

N=C(N)SCCc1cnc[nH]1
vessel count % control: 150% (inactive)

O=Nc1c(-c2c(O)[nH]c3ccccc23)[nH]c2ccccc12
vessel count % control: 15.6%

CCCN(CCC)[C@@H]1CCc2c(F)ccc(O)c2C1
vessel count % control: 78.7% (inactive)

NCCCCN
vessel count % control: 106% (inactive)

Oc1cc(O)c2c(c1)O[C@H](c1ccc(O)c(O)c1)[C@@H](O)C2
vessel count % control: 114% (inactive)

CC(C)C1C2CCC(C2)C1N (stereo not given)
vessel count % control: 95.1% (inactive)

O=C(O)CCC(NC(=O)c1ccccc1C(=O)O)C(=O)O (stereo not given)
vessel count % control: 103% (inactive)

C[C@](N)(Cc1ccc(O)c(O)c1)C(=O)O
vessel count % control: 97.4% (inactive)

CCN(c1nc(N)c(C(=O)N=C(N)N)nc1Cl)C(C)C
vessel count % control: 73.9% (inactive)

Cc1cccc(/C=C/c2ccccc2)n1
vessel count % control: 74.2% (inactive)

O=C(O)c1cc2cc(Cc3cccnc3)ccc2o1
vessel count % control: 100% (inactive)

CC12CCC3C(CCC4=C(O)C(=O)CCC43C)C1CCC2=O (stereo not given)
vessel count % control: 109% (inactive)

CCCCNc1cc(C(=O)O)cc(S(N)(=O)=O)c1Oc1ccccc1
vessel count % control: 59.2% (inactive)

Cc1o[nH]c(=O)c1CC(N)C(=O)O (stereo not given)
vessel count % control: 104% (inactive)

CCCCCCCCCCCCCC(=O)O[C@@H]1[C@@H](C)[C@@]2(O)[C@@H](C=C(CO)C[C@@]3(O)C(=O)C(C)=C[C@@H]23)C2C(C)(C)[C@@]21OC(C)=O (stereo not given in full)
vessel count % control: 0% (inactive)

Nn1nnc2ccccc21
vessel count % control: 109% (inactive)

OCc1ccc(-c2nn(Cc3ccccc3)c3ccccc23)o1
vessel count % control: 78.2% (inactive)

N[C@@H](COP(=O)(O)O)C(=O)O
vessel count % control: 105% (inactive)

CCn1c(=O)c2[nH]c(-c3ccccc3)nc2n(CC)c1=O
vessel count % control: 63.2% (inactive)

Cc1ccc(OCC(O)C(C)NC(C)C)c2c1CCC2 (stereo not given)
vessel count % control: 103% (inactive)

CC(=O)[C@H]1CCC2C3CC[C@H]4C[C@H](O)CC[C@]4(C)C3CC[C@@]21C (stereo not given in full)
vessel count % control: 68.7% (inactive)

CO[C@H]1CC=C2CCN3CCC4=C(CC(=O)OC4)[C@]23C1
vessel count % control: 105% (inactive)

O=C(c1ccc2c(c1)OCCO2)N1CCCCC1
vessel count % control: 106% (inactive)

O=C(N[C@@H](Cc1ccccc1)C(=O)CCl)OCc1ccccc1
vessel count % control: 0% (inactive)

S=C(S)N1CCCC1
vessel count % control: 73.2% (inactive)

NCc1cc(=O)[nH]o1
vessel count % control: 110% (inactive)

Nc1c(S(=O)(=O)O)cc(Nc2ccc(Nc3nc(Cl)nc(Nc4ccc(S(=O)(=O)O)cc4)n3)c(S(=O)(=O)O)c2)c2c1C(=O)c1ccccc1C2=O
vessel count % control: 106% (inactive)

CNc1cc(NS(=O)(=O)c2ccc(N)cc2)nc(NC)n1
vessel count % control: 81.3% (inactive)

Cn1c(=O)[nH]c2ncn(C)c2c1=O
vessel count % control: 95.7% (inactive)

COc1ccc2c(c[n+](C)c3c4cc5c(cc4ccc23)OCO5)c1OC
vessel count % control: 124% (inactive)

NC(CO)C(=O)NNCc1ccc(O)c(O)c1O (stereo not given)
vessel count % control: 120% (inactive)

CC(=O)OCC(=O)[C@@]1(O)CC[C@H]2[C@@H]3CCC4=CC(=O)CC[C@]4(C)[C@H]3C(=O)C[C@@]21C
vessel count % control: 97.3% (inactive)

COCCc1ccc(OCC(O)CNC(C)C)cc1 (stereo not given)
vessel count % control: 128% (inactive)

O=[N+]([O-])c1ccc2nc(N3CCNCC3)ccc2c1
vessel count % control: 118% (inactive)

CC1=C(C(=O)O)N2C(=O)[C@@H](NC(=O)C(N)C3=CCC=CC3)[C@H]2SC1 (stereo not given in full)
vessel count % control: 98.7% (inactive)

CC(C)(C)NCC(O)COc1cccc2[nH]c(=O)[nH]c12 (stereo not given)
vessel count % control: 103% (inactive)

O=C(O)c1cc[c]([Hg][Cl])cc1
vessel count % control: 105% (inactive)

COC(=O)C1=CCCN(C)C1
vessel count % control: 66% (inactive)

CCN(Cc1ccncc1)C(=O)C(CO)c1ccccc1 (stereo not given)
vessel count % control: 114% (inactive)

C[N+](C)(C)CCOC(N)=O
vessel count % control: 114% (inactive)

O=c1[nH]c(=O)n([C@H]2C[C@H](O)[C@@H](CO)O2)cc1/C=C/Br
vessel count % control: 93% (inactive)

Cc1oncc1C(=O)Nc1ccc(C(F)(F)F)cc1
vessel count % control: 81.6% (inactive)

CCc1c(C(=O)OC)ncc2[nH]c3cc(OC)c(OC)cc3c12
vessel count % control: 129% (inactive)

CN1C2CCC1CC(OC(c1ccccc1)c1ccccc1)C2 (stereo not given)
vessel count % control: 91.6% (inactive)

CC[C@H](C)C(=O)O[C@H]1CCC=C2C=C[C@H](C)[C@H](CC[C@@H]3C[C@@H](O)CC(=O)O3)[C@H]21
vessel count % control: 88.5% (inactive)

CN/C(=C\[N+](=O)[O-])NCCSCc1ccc(CN(C)C)o1
vessel count % control: 112% (inactive)

CN(N=O)c1cc(O)ccc1O
vessel count % control: 88% (inactive)

NC(N)=Nc1nc(CSCC/C(N)=N/S(N)(=O)=O)cs1
vessel count % control: 113% (inactive)

CCCCN1CCC(n2c(=O)[nH]c3ccccc32)CC1
vessel count % control: 67.2% (inactive)

CC(/C=C/c1cccc(Oc2ccc(F)cc2)c1)N(O)C(N)=O (stereo not given)
vessel count % control: 100% (inactive)
